Test results published in patent US10273226B2, “Pyrazolyl-heteroarylamides as pesticides” (Bayer Animal Health GmbH, priority 2014, dated 2019).

How the values were obtained:
Assay type in all cases: in vivo
Rhipicephalus sanguineus = Rhipicephalus sanguineus in vitro contact test with adult brown dog ticks; details: after 48 h, ticks dead or moribund
Protocol: Rhipicephalus sanguineus—In Vitro Contact Tests with Adult Brown Dog Ticks
For the coating of the test tubes, 9 mg of active ingredient are first dissolved in 1 ml of acetone p.a. and then diluted to the desired concentration with acetone p.a. 250 μl of the solution are distributed homogeneously on the inner walls and base of a 25 ml test tube by turning and rocking on an orbital shaker (rocking rotation at 30 rpm for 2 h). With 900 ppm active ingredient solution and internal surface 44.7 cm^2, given homogeneous distribution, an area-based dose of 5 μg/cm^2 is achieved.
After the solvent has evaporated off, the tubes are populated with 5-10 adult dog ticks (Rhipicephalus sanguineus), sealed with a perforated plastic lid and incubated in a horizontal position in the dark at room temperature and ambient humidity. After 48 h, efficacy is determined. To this end, the ticks are knocked to the floor of the tube and incubated on a hotplate at 45-50° C. for not more than 5 min. Ticks which remain motionless on the floor or move in such an uncoordinated manner that they are unable to deliberately avoid the heat by climbing upwards are considered to be dead or moribund.
An efficacy of 100% means that all the ticks were dead or moribund. 0% efficacy means that none of the ticks had been harmed.

Lucilia cuprina = Lucilia cuprina test; details: application rate 100 ppm; L1 larvae; after 2 days
Protocol: (§1) Solvent: dimethyl sulphoxide
To produce an appropriate active ingredient formulation, 10 mg of active ingredient are mixed with 0.5 ml of dimethyl sulphoxide, and the concentrate is diluted with water to the desired concentration.
About 20 L1 larvae of the Australian sheep blowfly (Lucilia cuprina) are transferred into a test vessel containing minced horsemeat and the active ingredient preparation of the desired concentration.
After 2 days, the kill in % is determined. 100% means that all the larvae have been killed and 0% means that none of the larvae have been killed.

Boophilus microplus = Boophilus microplus injection test; details: application rate 20 μg/animal; injection into abdomen; assessed after 7 days
Protocol: Boophilus microplus—Injection Test
as §1
To produce an appropriate active ingredient formulation, 10 mg of active ingredient are mixed with 0.5 ml of solvent and the concentrate is diluted with solvent to the desired concentration.
1 μl of the active ingredient solution is injected into the abdomen of 5 engorged adult female cattle ticks (Boophilus microplus). The animals are transferred into dishes and kept in a climate-controlled room.
Efficacy is assessed after 7 days by laying of fertile eggs. Eggs which are not visibly fertile are stored in a climate-controlled cabinet until the larvae hatch after about 42 days. An efficacy of 100% means that none of the ticks has laid any fertile eggs; 0% means that all the eggs are fertile.

Ctenocephalides felis = Ctenocephalides felis oral test; details: application rate 100 ppm in citrated cattle blood; after 2 days
Protocol: Ctenocephalides felis—Oral Test
as §1
For the purpose of producing an appropriate active ingredient formulation, 10 mg of active ingredient are mixed with 0.5 ml of dimethyl sulphoxide. Dilution with citrated cattle blood gives the desired concentration.
About 20 unfed adult cat fleas (Ctenocephalides felis) are placed into a chamber which is closed at the top and bottom with gauze. A metal cylinder whose bottom end is closed with parafilm is placed onto the chamber. The cylinder contains the blood/active ingredient preparation, which can be imbibed by the fleas through the parafilm membrane.
After 2 days, the kill in % is determined. 100% means that all of the fleas have been killed; 0% means that none of the fleas have been killed.

Spodoptera frugiperda = Spodoptera frugiperda spray test; details: caterpillars, after 7 days
Protocol: Spodoptera frugiperda—Spray Test
(§2) To produce an appropriate active ingredient formulation, 1 part by weight of active ingredient is dissolved using the specified parts by weight of solvent and made up with water containing an emulsifier concentration of 1000 ppm until the desired concentration is attained. To produce further test concentrations, the preparation is diluted with emulsifier-containing water.
Leaf discs of maize (Zea mays) are sprayed with an active ingredient formulation of the desired concentration and, after drying, populated with caterpillars of the armyworm (Spodoptera frugiperda).
After 7 days, efficacy in % is determined. 100% means that all the caterpillars have been killed; 0% means that no caterpillars have been killed.

Tetranychus urticae = Tetranychus urticae spray test, OP-resistant; details: application rate 100 g/ha; after 6 days
Protocol: Tetranychus urticae—Spray Test, OP-Resistant
as §2
Discs of bean leaves (Phaseolus vulgaris) infested by all stages of the greenhouse red spider mite (Tetranychus urticae) are sprayed with an active ingredient formulation of the desired concentration.
After 6 days, efficacy in % is determined. 100% means that all the spider mites have been killed; 0% means that none of the spider mites have been killed.

Phaedon cochleariae = Phaedon cochleariae spray test; details: larvae, after 7 days
Protocol: Phaedon cochleariae—Spray Test
as §2
Discs of Chinese cabbage leaves (Brassica pekinensis) are sprayed with an active ingredient formulation of the desired concentration and, after drying, populated with larvae of the mustard beetle (Phaedon cochleariae).
After 7 days, efficacy in % is determined. 100% means that all the beetle larvae have been killed; 0% means that no beetle larvae have been killed.

[1] = application rate 5 μg/cm^2 (500 g/ha)

Row | SMILES | efficacy (Rhipicephalus sanguineus; [1]) | efficacy (kill in %) (Lucilia cuprina) | efficacy (laying of fertile eggs) (Boophilus microplus) | efficacy (kill in %) (Ctenocephalides felis) | efficacy (Spodoptera frugiperda; application rate 100 g/ha) | efficacy (Tetranychus urticae) | efficacy (Phaedon cochleariae; application rate 100 g/ha) | efficacy (Phaedon cochleariae; application rate 500 g/ha) | efficacy (Spodoptera frugiperda; application rate 500 g/ha) | efficacy (Rhipicephalus sanguineus; application rate 1 μg/cm^2 (100 g/ha))
1 | CCC(=O)Nc1cccc(-c2cnn(-c3c(C(F)(F)F)c(C(F)(F)C(F)(F)F)nn3C)c2)c1 [Example 1-008] | 100% | 100% | 100% | 100% | – | – | – | – | – | –
2 | Cn1nc(C(F)(F)C(F)(F)F)c(C(F)(F)F)c1-n1cc(-c2ccc(F)c(NC(=O)c3cccc(C(F)(F)F)c3)c2)cn1 [Example 1-057] | – | 100% | 100% | 95% | 83% | – | – | – | – | –
3 | CN(C)c1ccc(C(=O)Nc2cc(-c3cnn(-c4c(C(F)(F)F)c(C(F)(F)C(F)(F)F)nn4C)c3)ccc2F)cc1 [Example 1-054] | 100% | 100% | 100% | – | 100% | 100% | 100% | – | – | –
4 | Cc1occc1C(=O)Nc1cc(-c2cnn(-c3c(C(F)(F)F)c(C(F)(F)C(F)(F)F)nn3C)c2)ccc1F [Example 1-067] | – | 100% | 100% | 100% | 100% | 100% | 100% | – | – | –
5 | Cn1nc(C(F)(F)C(F)(F)F)c(C(F)(F)F)c1-n1cc(-c2ccc(F)c(NC(=O)Cc3cccs3)c2)cn1 [Example 1-117] | 100% | 100% | 100% | 100% | 100% | – | – | – | – | –
6 | Cn1nc(C(F)(F)C(F)(F)F)c(C(F)(F)F)c1-n1cc(-c2ccc(F)c(NC(=O)Cc3cccc(F)c3)c2)cn1 [Example 1-121] | 100% | 100% | 100% | 100% | 100% | 100% | 100% | – | – | –
7 | Cn1nc(C(F)(F)C(F)(F)F)c(C(F)(F)F)c1-n1cc(-c2ccc(F)c(NC(=O)C(C)(C)CF)c2)cn1 [Example 1-046] | – | 100% | 100% | – | – | 100% | – | – | – | –
8 | Cn1nc(C(F)(F)C(F)(F)F)c(C(F)(F)F)c1-n1cc(-c2cccc(NC(=O)C3(C#N)CC3)c2)cn1 [Example 1-029] | 100% | 100% | 100% | 100% | – | 100% | – | 83% | 100% | –
9 | COCCC(=O)Nc1cc(-c2cnn(-c3c(C(F)(F)F)c(C(F)(F)C(F)(F)F)nn3C)c2)ccc1F [Example 1-061] | 80% | – | 100% | 100% | – | – | – | – | – | –
10 | Cn1nc(C(F)(F)C(F)(F)F)c(C(F)(F)F)c1-n1cc(-c2ccc(F)c(NC(=O)C3(C)CCCCC3)c2)cn1 [Example 1-053] | – | – | – | – | – | 100% | – | – | – | –
11 | Cn1nc(C(F)(F)C(F)(F)F)c(C(F)(F)F)c1-n1cc(-c2ccc(F)c(NC(=O)Cc3cccc(C(F)(F)F)c3)c2)cn1 [Example 1-116] | – | 100% | 100% | 100% | 83% | – | 100% | – | – | –
12 | Cn1nc(C(F)(F)C(F)(F)F)c(C(F)(F)F)c1-n1cc(-c2ccc(F)c(NC(=O)c3cccc(F)c3F)c2)cn1 [Example 1-070] | 80% | 100% | 100% | 100% | – | – | – | – | – | –
13 | CCC(C)C(=O)Nc1cc(-c2cnn(-c3c(C(F)(F)F)c(C(F)(F)C(F)(F)F)nn3C)c2)ccc1F (racemic) [Example 1-052] | – | 100% | 100% | 90% | 100% | 100% | – | – | – | –
14 | COc1cc(C(=O)Nc2cc(-c3cnn(-c4c(C(F)(F)F)c(C(F)(F)C(F)(F)F)nn4C)c3)cnc2Cl)ccc1F [Example 2-007] | – | 100% | 100% | 100% | – | – | 100% | – | – | 80%
15 | Cn1nc(C(F)(F)C(F)(F)F)c(C(F)(F)F)c1-n1cc(-c2ccc(F)c(NC(=O)c3ccc(F)c(C(F)(F)F)c3)c2)cn1 [Example 1-050] | – | 100% | 100% | – | – | – | 100% | – | – | –
16 | CC(C(=O)Nc1cc(-c2cnn(-c3c(C(F)(F)F)c(C(F)(F)C(F)(F)F)nn3C)c2)ccc1F)c1ccccc1 (racemic) [Example 1-108] | – | – | 100% | – | – | 100% | – | – | – | –
17 | Cn1nc(C(F)(F)C(F)(F)F)c(C(F)(F)F)c1-n1cc(-c2ccc(F)c(NC(=O)C(C)(C)C)c2)cn1 [Example 1-078] | 100% | 100% | 100% | 80% | 100% | 100% | – | – | – | –
18 | Cc1ccc(C(=O)Nc2cc(-c3cnn(-c4c(C(F)(F)F)c(C(F)(F)C(F)(F)F)nn4C)c3)ccc2F)cc1C [Example 1-090] | 100% | – | – | – | – | – | 100% | – | – | –
19 | Cn1nc(C(F)(F)C(F)(F)F)c(C(F)(F)F)c1-n1cc(-c2cccc(NC(=O)c3cc(Cl)nc(Cl)c3)c2)cn1 [Example 1-011] | 80% | 100% | 100% | 100% | – | 90% | 100% | – | – | –
20 | Cn1nc(C(F)(F)C(F)(F)F)c(C(F)(F)F)c1-n1cc(-c2cccc(NC(=O)c3sccc3Cl)c2)cn1 [Example 1-018] | – | – | 100% | – | – | 90% | – | 100% | 100% | –
21 | Cn1nc(C(F)(F)C(F)(F)F)c(C(F)(F)F)c1-n1cc(-c2cccc(NC(=O)C3(Cl)CC3)c2)cn1 [Example 1-030] | 80% | 100% | 100% | 100% | – | – | – | – | 100% | –
22 | Cn1nc(C(F)(F)C(F)(F)F)c(C(F)(F)F)c1-n1cc(-c2cccc(NC(=O)c3ncccc3Cl)c2)cn1 [Example 1-005] | – | 100% | 100% | 100% | 100% | – | 100% | – | – | –
23 | CC(C)C(C)(C)C(=O)Nc1cc(-c2cnn(-c3c(C(F)(F)F)c(C(F)(F)C(F)(F)F)nn3C)c2)ccc1F [Example 1-065] | – | 80% | 100% | 90% | – | 100% | – | – | – | –
